According to patent publication US20050118601A1, “Enhancer sequence of the 5-aminolevulinic acid synthase gene” (priority 2002, published 2005):
Read-outs that look alike come from different tables or passages of the source.

How the values were obtained:
[1] = system: chicken ALAS1 drug responsive enhancer sequence (ADRES) elements; test: Luciferase reporter gene assay of chicken ALAS1 5'-flanking fragments / ADRES elements in transfected LMH cells; format: cell-based; details: for ADRES activation in reporter assays: PIA 250 μM, glutethimide 500 μM, metyrapone 400 μM, dexamethasone 50 μM, RU-486 10 μM, rifampicin 100 μM, TCPOBOP 10 μM, compared with PB 600 μM
Experimental: The constructs were transfected together with a transfection-control construct expressing β-galactosidase into LMH cells. Cells were then treated with 600 μM PB for 16 h and luciferase assays were performed on the cell extracts. Relative luciferase levels are standardized against cells transfected with vector containing no insert and expressed as fold induction. Experiments were repeated at least three times and data from a representative experiment tested in triplicate are shown here. Error bars represent standard deviations;
Three major subclones were generated from the region upstream of the transcriptional start site, including a 3282 bp SmaI fragment and 5056 bp and 7973 bp EcoRI segments (FIG. 1A). The SmaI clone extends from −167 bp to −3449 bp, whereas the EcoRI subfragments span the regions from −2347 bp to −7402 bp and −7403 bp to −15376 bp, respectively. These subfragments were cloned into the pLucMCS modified luciferase vector containing an SV40 promoter as described in Materials and Methods. Drug inducibility was measured in transiently transfected LMH cells treated with 600 μM PB and compared with control values. […]
The modified enhancers were examined for response to 600 μM PB in luciferase reporter gene assays and the results are presented in FIG. 3.
Leghorn Male Hepatoma (LMH) cells were obtained from the American Type Culture Collection and cultivated in 10 cm dishes in Williams E medium supplemented with 10% FCS, 1% glutamine (2 mM) and 1% penicillin/streptomycin (50 IU/ml). Dishes coated with 0.1% gelatin were used for routine culture of LMH cells in order to facilitate proper seating of the cells onto the plastic plate surface.

ALAS1 mRNA = ALAS1 mRNA quantification (Taqman real-time PCR) in LMH cells; format: cell-based, chicken
Experimental: We next wanted to compare ADRES-mediated ALAS1 induction levels from reporter gene assays with stimulation of transcription in a physiological system. […] In addition, the common CYP3A inducers dexamethasone (50 μM), metyrapone (400 μM), and 10 μM mifepristone (RU-486) were employed for comparison. We were also interested in the effects of […] 5-pregnen-3β-ol-20-one-16α-carbonitrile (PCN) and rifampicin (100 μM) due to their species-specific effects on PXR activation and CYP3A induction. Messenger RNA was reverse transcribed and levels of ALAS1 cDNA were quantified using the Taqman real-time PCR quantification system as described in Materials and Methods. […] This value was chosen to represent 100% induction, against which all other values are compared.
LMH cells were plated onto 12-well plates, expanded to 70-80% surface density and incubated in serum-free media for 24 h. Cells were then exposed to either drug or vehicle and RNA was isolated with Trizol reagent (Gibco BRL) according to the manufacturer protocol. One μg of total RNA was reverse transcribed with the Moloney murine leukemia virus reverse transcriptase kit (Roche Molecular Biochemicals). PCR was performed using the Taqman PCR core reagent kit (PE Applied Biosystems) and transcript levels quantitated with an ABI Prism 7700 sequence detection system (PE Applied Biosystems). Relative transcript levels were determined using the relative quantitation method measuring the ΔΔCt. The following primers and probes were used in these reactions. […] Transcript levels were measured in separate tubes and GAPDH values were used for normalization of ALAS1 values.

[2] = system: human ALAS1 gene fragments (hA795, hA174, hA8, hA240); test: Luciferase reporter gene assay of human ALAS1 fragments in LMH cells; format: cell-based; details: 24 h, 400 μM PB or 250 μM PIA
Experimental: Fragments were cloned into the pGL3 luciferase reporter vector (Promega Corp) and tested for inducibility by the prototypical HALAS1 inducers phenobarbital (PB) and propylisopropylacetamid (PIA). Four hours after transfection of LMH cells with the constructs, cells were exposed to the drugs for 24 hours, after which luciferase activity was assayed. Results were normalized for transfection efficiency by assaying for activity of co-transfected β-galactosidase. Data shown is one representative experiment (FIG. 11).
We investigated in more detail the contribution of various response element half-sites to drug-induction mediated by this element. Within the hA174 element, an arrangement of three nuclear receptor response element half-sites was found, which lead: to the prediction of a DR-4 type, as well as a DR-5 type response element (of. FIG. 18A). By site-directed mutagenesis, we examined the involvement of each of these half-sites to drug induction. In the context of the 2xhA174 reporter construct, each single half-site was mutated in both copies of the hA174 element. The wild-type and mutant constructs were subsequently tested for reporter gene activation in LMH cells as described above. Cells were induced with 400 μM phenobarbital (PB) or 250 μM propylisopropylacetamid (PIA). As a control, vehicle alone (0.1% DMSO) was added to the cells. After 24 hours, luciferase activity was assayed and normalized against co-transfected β-galactosidase activity in order to compensate for transfection efficiency. […] From this, we conclude that the DR-4 element, consisting of the HS1 and HS2 half-sites, is essential for drug induction. The change in induction observed by mutagenesis of the HS3 half-site may indicate a modulatory role for the half-site alone or as a DR-5 in combination with HS2 in drug induction. Data shown are the mean+1SD of three independent experiments.
In order to define a core sequence retaining inducibility, the hA8 fragment (Seq. Id. No. 10), which carries PCR-introduced KpnI and XhoI restriction sites at its ends, was digested with SacI and NsiI. The resulting four fragments, a 100 bp KpnI/SacI fragment, a 374 bp SacI/NsiI fragment, a 240 bp NsiI/NsiI fragment, and a 231 bp NsiI/XhoI fragment, were cloned into a reporter gene vector and subsequently tested for drug induction in LMH cells. Of these fragments, only the 240 bp fragment (called hA240) (Seq. Id. No. 39) was able to convey transcriptional activation in response to drugs. Within the core hA240 fragment, we then mutated both half-sites of a predicted DR-4 element (cf. FIG. 18B) and observed the effect of this mutation on drug induction (240mutDR4). Alteration of the DR4 element half-sites abolished drug induction in LMH cell reporter gene assays. […]

mouse PXR = biological target: T1, mouse PXR (Mus musculus, UniProt O54915)
T1 sequence (O54915 1-431): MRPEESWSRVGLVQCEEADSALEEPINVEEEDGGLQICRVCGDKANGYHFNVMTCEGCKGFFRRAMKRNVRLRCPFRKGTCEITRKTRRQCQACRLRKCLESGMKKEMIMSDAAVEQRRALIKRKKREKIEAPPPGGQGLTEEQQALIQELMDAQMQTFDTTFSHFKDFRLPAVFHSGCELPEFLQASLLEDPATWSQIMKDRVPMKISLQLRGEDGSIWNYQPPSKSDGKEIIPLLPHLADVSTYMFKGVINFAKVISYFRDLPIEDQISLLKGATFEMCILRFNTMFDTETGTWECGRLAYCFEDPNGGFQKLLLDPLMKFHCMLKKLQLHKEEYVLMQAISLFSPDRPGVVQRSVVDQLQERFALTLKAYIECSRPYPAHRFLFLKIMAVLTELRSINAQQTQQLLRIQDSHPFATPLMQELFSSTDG
Experimental: (§1) To test the effects of the mutations on transcriptional activation, transactivations in CV-1 cells with mouse PXR and mouse CAR and their respective inducers PCN and TCPOBOP, were performed (FIG. 14). The inducible DNA constructs were subcloned into the CAT5 reporter vector and tested for their ability to be transactivated by nuclear receptor transcription factors in CV-1 cells. Mouse PXR (A) and mouse CAR (B) coding regions cloned into the pSG5 expression vector were cotransfected along with a vector expressing pSV β-galactosidase as control. Cells were then treated for 16 h with either drugs (A, PCN; B, TCPOBOP) or vehicle control and cell extracts were analyzed for CAT expression normalized against β-galactosidase levels. Experiments were repeated at least three times and error bars represent standard deviations.

mouse CAR = biological target: T2, mouse CAR (Mus musculus, UniProt O35627); test: Transactivation of 369 bp ADRES by mouse CAR in CV-1 cells (CAT reporter); format: cell-based
T2 construct: expressed in transfected cells; host or cells: CV-1 cells, pSG5 expression vector
T2 sequence (O35627 1-358): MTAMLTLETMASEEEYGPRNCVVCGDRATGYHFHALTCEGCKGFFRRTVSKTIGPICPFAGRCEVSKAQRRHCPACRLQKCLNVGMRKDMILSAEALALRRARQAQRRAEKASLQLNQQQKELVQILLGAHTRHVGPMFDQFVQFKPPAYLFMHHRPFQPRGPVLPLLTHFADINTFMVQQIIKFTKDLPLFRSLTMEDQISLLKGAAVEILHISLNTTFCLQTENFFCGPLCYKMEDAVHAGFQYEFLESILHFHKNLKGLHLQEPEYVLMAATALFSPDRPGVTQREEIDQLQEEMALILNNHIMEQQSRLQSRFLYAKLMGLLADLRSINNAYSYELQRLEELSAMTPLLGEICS
Experimental: as §1

mouse 369 bp DRES = test: Luciferase reporter gene assay of mouse ALAS1 fragments / 369 bp DRES in LMH cells; format: cell-based; details: for induction of the 369 bp DRES, ranking of drugs: metyrapone 500 μM, glutethimide 500 μM, PIA 250 μM
Experimental: A 175 bp fragment (441 to 615) (Seq. Id. No. 3) was isolated by digesting the 2.6 kb fragment with SacI/XbaI. All fragments were subcloned in the pGL3LUCpro+MCS vector and the resulting constructs tested for inducibility in LMH reporter gene assay (FIG. 6). […] The 369 bp fragment was termed Drug responsive enhancer sequence DRES.
To compare the 369 bp DRES to other inducible fragments, a series of different drugs was used as inducers: clothrimazole (Clo, 10 μM), dexamethasone (Dex, 50 μM), glutethimide (GE, 500 μM), metyrapone (Met, 500 μM), phenobarbital (PB, 500 μM), PCN (10 μM), propylisopropylacetamide (PIA, 250 μM), rifampicin (Rif, 10 μM), RU486 (10 μM), TCPOBOP (10 μM).
Data shown is from two independent experiments.

Compound: CCC1(c2ccccc2)C(=O)NC(=O)NC1=O.[Na] [PB, 5-ethyl-5-phenyl-barbituric acid sodium salt]
- PB response of 167 bp ADRES diminished by DR4-3 mutation ([1]; 600 μM PB, LMH cells): 75%
- activation of 167 bp ADRES, DR4-2 mutant ([1]; 600 μM PB, LMH cells): 5.4 fold
- activation of 176 bp ADRES, DR4-1 mutant ([1]; 600 μM PB, LMH cells): 16 fold
- activation of 176 bp ADRES, DR5 mutant ([1]; 600 μM PB, LMH cells): 6.4 fold
- activation of wild type 167 bp ADRES ([1]; 600 μM PB, LMH cells): 60 fold
- activation of wild type 176 bp ADRES ([1]; 600 μM PB, LMH cells): 44 fold
- induction of 167 bp ADRES, DR4-3 mutant ([1]; 600 μM PB, LMH cells): 15 fold
- limitation of 176 bp ADRES activation by DR4-1 mutation ([1]; 600 μM PB, LMH cells): over 60%
- reduction of 176 bp ADRES activity by DR5 mutation ([1]; 600 μM PB, LMH cells): over 85%
- reduction of PB response of 167 bp ADRES by DR4-2 alteration ([1]; 600 μM PB, LMH cells): over 90%
- induction over control values, 176 bp and 167 bp elements ([1]; LMH cells exposed to PB): 25-60 fold
- transcriptional activation in response to drug treatment, 5056 bp and 3282 bp subfragments ([1]; LMH cells, 600 μM PB): virtually no transcriptional activation
- increase in transcriptional activation relative to control values, 7973 bp subfragment ([1]; LMH cells, 600 μM PB, 16 h): 28 fold
- activation of the 167 bp element compared to the 176 bp element ([1]; PB 600 μM, LMH cells): twice the activation
- ALAS1 RNA levels relative to basal transcript levels (ALAS1 mRNA): 16 fold
- effect on ALAS1 mRNA levels (ALAS1 mRNA): strong inducer
- inducibility of 2xhA174, HS1 or HS2 half-site mutated [2]: abolishment of inducibility
- induction of 2xhA174, HS3 half-site altered [2]: merely reduces induction levels

Compound: CC(=O)[C@H]1[C@H](C#N)C[C@H]2[C@@H]3CC=C4C[C@@H](O)CC[C@]4(C)[C@H]3CC[C@@]21C [PCN, 5-pregnene-3β-ol-20-one-16α-carbonitrile]
- ADRES activation in reporter assays ([1]; LMH cells, 16 h): minor or no effects
- effect on ALAS1 mRNA levels (ALAS1 mRNA): minor or no effects
- activation, DR4-1 double mutant (mouse PXR): 1.9 fold
- activation, first DR4-2 single mutant (DR4-2/hs1) (mouse PXR): 5.8 fold
- activation, second DR4-2 single mutant (DR4-2/hs2) (mouse PXR): 5.3 fold
- drug response, both NR binding sites of 369 bp element altered (mouse PXR): elimination of PXR-mediated drug response
- induction, 369 bp wild type (mouse PXR): 5.6 fold
- induction, DR4-2 double mutant (mouse PXR): 2.5 fold
- induction, first DR4-1 single mutant (DR4-1/hs1) (mouse PXR): 2.7 fold
- induction, second DR4-1 single mutant (DR4-1/hs2) (mouse PXR): 2.0 fold

Compound: CC#C[C@]1(O)CC[C@H]2[C@@H]3CCC4=CC(=O)CCC4=C3[C@@H](c3ccc(N(C)C)cc3)C[C@@]21C [RU-486, Mifepristone]
- ADRES activation in reporter assays ([1]; LMH cells, 16 h): minor or no effects
- effect on ALAS1 mRNA levels (ALAS1 mRNA; LMH cells, 16 h, PB 600 μM, dexamethasone 50 μM, RU-486 10 μM, rifampicin 100 μM, TCPOBOP 10 μM): minor or no effects

Compound: C[C@@]12CCC[C@H]1[C@@H]1CC[C@H]3C[C@@H](O)CC[C@]3(C)[C@H]1CC2 [androstanol]
- basal expression exceeding androstanol-treated levels, DR4-2/hs1 single mutant (mouse CAR): 2.5 fold
- basal expression exceeding androstanol-treated levels, DR4-2/hs2 single mutant (mouse CAR): 1.9 fold

Compound: CCC1(c2ccccc2)CCC(=O)NC1=O (stereo not drawn) [glutethimide, Glutethimide]
- ADRES activation in reporter assays ([1]; LMH cells, 16 h): in excess of levels obtained from PB treatment
- relative response of the 176 bp element ([1]; glutethimide 500 μM vs metyrapone 400 μM): slightly more affinity for glutethimide than metyrapone
- induction of the 369 bp DRES, ranking of drugs (mouse 369 bp DRES): strongest inducer

Compound: CC(C)(C(=O)c1cccnc1)c1cccnc1 [metyrapone, 2-methyl-1,2-di-3-pyridyl-propadone]
- ADRES activation in reporter assays ([1]; LMH cells, 16 h): in excess of levels obtained from PB treatment
- relative response of the 167 bp element ([1]; metyrapone 400 μM vs glutethimide 500 μM): stronger response to metyrapone than glutethimide
- induction of mouse 175, 280, 321, 328 and 369 bp fragments (mouse 369 bp DRES; Metyrapone 500 μM): enhanced induction
- induction of the 369 bp DRES, ranking of drugs (mouse 369 bp DRES): strongest inducer
